From BindingDB's records for doi:10.1021/jm00037a006 (Abbott Laboratories, 1994)
Square brackets hold non-standard residues; d marks the D form. Peptide text beside a SMILES is read from it. * marks the point of attachment. Acryloyl(3-(3-pyridyl),E) = O=C(/C=C/c1cccnc1)*; NMeF = CN[C@@H](Cc1ccccc1)C(=O)O; NMeD = CN[C@@H](CC(=O)O)C(=O)O; Boc = CC(C)(C)OC(=O)*

Target: Gastrin/cholecystokinin type B receptor (Cavia porcellus)
Assay: In vitro binding for half maximal inhibition of [125I]- cholecystokinin type B receptor in guinea pig cortex

## CN(C(=O)[C@H](CCCCNC(=O)/C=C/c1cccnc1)NC(=O)[C@H](Cc1c[nH]c2ccccc12)NC(=O)OC(C)(C)C)[C@@H](CC(=O)O)C(=O)N(C)[C@@H](Cc1ccccc1)C(N)=O [(S)-3-{[(S)-2-[2-tert-Butoxycarbonylamino-3-(1H-indol-3-yl)-propionylamino]-6-((E)-3-pyridin-3-yl-acryloylamino)-hexanoyl]-methyl-amino}-N-((S)-1-carbamoyl-2-phenyl-ethyl)-N-methyl-succinamic acid] (Boc-WK(Acryloyl(3-(3-pyridyl),E))[NMeD][NMeF]-NH2)
  IC50: 22.7 µM
